Laboratory results from patent publication US20240217983A1, “GPR119 AGONISTS” (Kallyope, Inc., priority 2021, published 2024).

Molecular target: T1, human GPR119 (hGPR119) (Homo sapiens, UniProt Q8TDV5)
T1 construct: expressed in transfected cells
T1 sequence (Q8TDV5 1-335): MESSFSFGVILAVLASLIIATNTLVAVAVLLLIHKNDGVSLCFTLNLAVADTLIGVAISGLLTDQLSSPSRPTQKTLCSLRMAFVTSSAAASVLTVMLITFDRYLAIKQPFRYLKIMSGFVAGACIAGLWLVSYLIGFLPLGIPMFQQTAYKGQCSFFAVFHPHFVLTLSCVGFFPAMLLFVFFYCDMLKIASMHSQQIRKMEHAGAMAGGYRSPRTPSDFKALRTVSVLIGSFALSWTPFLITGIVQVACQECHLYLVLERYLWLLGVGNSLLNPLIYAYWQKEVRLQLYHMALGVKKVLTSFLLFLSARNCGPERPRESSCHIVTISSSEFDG
Test: cAMP accumulation assay (Cisbio cAMP Gs dynamic HTRF kit) in CHO-K1 cells stably expressing human GPR119
Format: cell-based
Conditions: 4-parameter fit; for Emax: 1 h, % activity normalized to Max and Min controls; for EC50: 60 minutes at 37° C.
In short: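 CHO-K1 cells stably expressing hGPR119, used as assay-ready frozen stocks at ~10,000 cells/well, exposed to compound dose-response in stimulation buffer with Tween 80 for 60 min at 37° C. cAMP read by HTRF (665/620 nm ratio), normalised to Max/Min controls; EC50 and Max activity from 4-parameter fit.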

Row | Emax | EC50 | SMILES
1 | 100 to 130% | ≤ 100 nM | COCc1cnc(N2CCC(CCCOc3cc(F)c(CC(=O)N4CCN(C[C@H](O)[C@@H](O)[C@H](O)[C@H](O)CO)CC4)c(F)c3)CC2)nc1 [Example 99, 2-(2,6-difluoro-4-(3-(1-(5-(methoxymethyl)pyrimidin-2-yl)piperidin-4-yl)propoxy)phenyl)-1-(4-((2S,3R,4R,5R)-2,3,4,5,6-pentahydroxyhexyl)piperazin-1-yl)ethan-1-one]
2 | 50 to 100% | > 10000 nM | COCc1cnc(N2CCC(CCOCc3ccc(CC(=O)N4CCN(C[C@H](O)[C@@H](O)[C@H](O)[C@H](O)CO)CC4)c(F)c3)CC2)nc1 [Example 103, 2-(2-fluoro-4-((2-(1-(5-(methoxymethyl)pyrimidin-2-yl)piperidin-4-yl)ethoxy)methyl)phenyl)-1-(4-((2S,3R,4R,5R)-2,3,4,5,6-pentahydroxyhexyl)piperazin-1-yl)ethan-1-one]
3 | 100 to 130% | 100 to 1000 nM | CC(C)OC(=O)N1CCC(CCCOc2ccc(CC(=O)N3CCN(C[C@H](O)[C@@H](O)[C@H](O)[C@H](O)CO)CC3)c(F)c2)CC1 [Example 104, isopropyl 4-(3-(3-fluoro-4-(2-oxo-2-(4-((2S,3R,4R,5R)-2,3,4,5,6-pentahydroxyhexyl)piperazin-1-yl)ethyl)phenoxy)propyl)piperidine-1-carboxylate]
4 | 100 to 130% | 100 to 1000 nM | O=C(Cc1ccc(OCCCC2CCN(C(=O)OC3(C(F)(F)F)COC3)CC2)cc1F)N1CCN(C[C@H](O)[C@@H](O)[C@H](O)[C@H](O)CO)CC1 [Example 105, 3-(trifluoromethyl)oxetan-3-yl 4-(3-(3-fluoro-4-(2-oxo-2-(4-((2S,3R,4R,5R)-2,3,4,5,6-pentahydroxyhexyl)piperazin-1-yl)ethyl)phenoxy)propyl)piperidine-1-carboxylate]
5 | 100 to 130% | 100 to 1000 nM | O=C(Cc1c(F)cc(OCCCC2CCN(C(=O)OC3(C(F)(F)F)COC3)CC2)cc1F)N1CCN(C[C@H](O)[C@@H](O)[C@H](O)[C@H](O)CO)CC1 [Example 106, 3-(trifluoromethyl)oxetan-3-yl 4-(3-(3,5-difluoro-4-(2-oxo-2-(4-((2S,3R,4R,5R)-2,3,4,5,6-pentahydroxyhexyl)piperazin-1-yl)ethyl)phenoxy)propyl)piperidine-1-carboxylate]
6 | 100 to 130% | 100 to 1000 nM | O=C(Cc1ccc(OCCC2CC23CCN(c2ncc(Cl)cn2)CC3)cc1F)N1CCN(C[C@H](O)[C@@H](O)[C@H](O)[C@H](O)CO)CC1 (stereo partly drawn) [Example 108, 2-(4-(2-(6-(5-chloropyrimidin-2-yl)-6-azaspiro[2.5]octan-1-yl)ethoxy)-2-fluorophenyl)-1-(4-((2S,3R,4R,5R)-2,3,4,5,6-pentahydroxyhexyl)piperazin-1-yl)ethan-1-one]
7 | 100 to 130% | 100 to 1000 nM | O=C(Cc1ccc(OCCCC2CC23CCN(c2ncc(Cl)cn2)CC3)cc1F)N1CCN(C[C@H](O)[C@@H](O)[C@H](O)[C@H](O)CO)CC1 (stereo partly drawn) [Example 109, 2-(4-(3-(6-(5-chloropyrimidin-2-yl)-6-azaspiro[2.5]octan-1-yl)propoxy)-2-fluorophenyl)-1-(4-((2S,3R,4R,5R)-2,3,4,5,6-pentahydroxyhexyl)piperazin-1-yl)ethan-1-one]
8 | 100 to 130% | 100 to 1000 nM | O=C(Cc1ccc(OCCC2CC3(CCN(c4ncc(Cl)cn4)CC3)C2)cc1F)N1CCN(C[C@H](O)[C@@H](O)[C@H](O)[C@H](O)CO)CC1 [Example 110, 2-(4-(2-(7-(5-chloropyrimidin-2-yl)-7-azaspiro[3.5]nonan-2-yl)ethoxy)-2-fluorophenyl)-1-(4-((2S,3R,4R,5R)-2,3,4,5,6-pentahydroxyhexyl)piperazin-1-yl)ethan-1-one]
9 | 100 to 130% | ≤ 100 nM | O=C(Cc1ccc(OCCCC2CC3(CCN(c4ncc(Cl)cn4)CC3)C2)cc1F)N1CCN(C[C@H](O)[C@@H](O)[C@H](O)[C@H](O)CO)CC1 [Example 111, 2-(4-(3-(7-(5-chloropyrimidin-2-yl)-7-azaspiro[3.5]nonan-2-yl)propoxy)-2-fluorophenyl)-1-(4-((2S,3R,4R,5R)-2,3,4,5,6-pentahydroxyhexyl)piperazin-1-yl)ethan-1-one]
10 | 50 to 100% | > 10000 nM | O=C(Cc1ccc(OCCC2CCC23CCN(c2ncc(Cl)cn2)CC3)cc1F)N1CCN(C[C@H](O)[C@@H](O)[C@H](O)[C@H](O)CO)CC1 (stereo partly drawn) [Example 113, 2-(4-(2-(7-(5-chloropyrimidin-2-yl)-7-azaspiro[3.5]nonan-1-yl)ethoxy)-2-fluorophenyl)-1-(4-((2S,3R,4R,5R)-2,3,4,5,6-pentahydroxyhexyl)piperazin-1-yl)ethan-1-one]
11 | 100 to 130% | ≤ 100 nM | O=C(Cc1ccc(OCC2CC(C3CCN(c4ncc(Cl)cn4)CC3)C2)cc1F)N1CCN(C[C@H](O)[C@@H](O)[C@H](O)[C@H](O)CO)CC1 (stereo partly drawn) [Example 114, 2-(4-((3-(1-(5-chloropyrimidin-2-yl)piperidin-4-yl)cyclobutyl)methoxy)-2-fluorophenyl)-1-(4-((2S,3R,4R,5R)-2,3,4,5,6-pentahydroxyhexyl)piperazin-1-yl)ethan-1-one]
12 | 100 to 130% | 100 to 1000 nM | O=C(Cc1ccc(OCCC2CC(C3CCN(c4ncc(Cl)cn4)CC3)C2)cc1F)N1CCN(C[C@H](O)[C@@H](O)[C@H](O)[C@H](O)CO)CC1 (stereo partly drawn) [Example 115, 2-(4-(2-(3-(1-(5-chloropyrimidin-2-yl)piperidin-4-yl)cyclobutyl)ethoxy)-2-fluorophenyl)-1-(4-((2S,3R,4R,5R)-2,3,4,5,6-pentahydroxyhexyl)piperazin-1-yl)ethan-1-one]

Row | SMILES | Emax | EC50
13 | COCc1cnc(N2CCC(CCCCOc3ccc(CC(=O)N4CCN(C[C@H](O)[C@@H](O)[C@H](O)[C@H](O)CO)CC4)c(F)c3)CC2)nc1 [Example 100, 2-(2-fluoro-4-(4-(1-(5-(methoxymethyl)pyrimidin-2-yl)piperidin-4-yl)butoxy)phenyl)-1-(4-((2S,3R,4R,5R)-2,3,4,5,6-pentahydroxyhexyl)piperazin-1-yl)ethan-1-one] | 100 to 130% | 100 to 1000 nM
14 | COCc1cnc(N2CCC(CCCCOc3cc(F)c(CC(=O)N4CCN(C[C@H](O)[C@@H](O)[C@H](O)[C@H](O)CO)CC4)c(F)c3)CC2)nc1 [Example 101, 2-(2,6-difluoro-4-(4-(1-(5-(methoxymethyl)pyrimidin-2-yl)piperidin-4-yl)butoxy)phenyl)-1-(4-((2S,3R,4R,5R)-2,3,4,5,6-pentahydroxyhexyl)piperazin-1-yl)ethan-1-one] | 100 to 130% | ≤ 100 nM
15 | CC1(CCCCOc2ccc(CC(=O)N3CCN(C[C@H](O)[C@@H](O)[C@H](O)[C@H](O)CO)CC3)c(F)c2)CCN(c2ncc(Cl)cn2)CC1 [Example 107, 2-(4-(4-(1-(5-chloropyrimidin-2-yl)-4-methylpiperidin-4-yl)butoxy)-2-fluorophenyl)-1-(4-((2S,3R,4R,5R)-2,3,4,5,6-pentahydroxyhexyl)piperazin-1-yl)ethan-1-one] | 100 to 130% | 100 to 1000 nM
16 | O=C(Cc1ccc(OCCCCC2CC3(CCN(c4ncc(Cl)cn4)CC3)C2)cc1F)N1CCN(C[C@H](O)[C@@H](O)[C@H](O)[C@H](O)CO)CC1 [Example 112, 2-(4-(4-(7-(5-chloropyrimidin-2-yl)-7-azaspiro[3.5]nonan-2-yl)butoxy)-2-fluorophenyl)-1-(4-((2S,3R,4R,5R)-2,3,4,5,6-pentahydroxyhexyl)piperazin-1-yl)ethan-1-one] | 100 to 130% | 100 to 1000 nM
